Reference: PubChem BioAssay AID2060332 (Molecular Pharmacology Branch, DTP, NCI, 2025)

Tested on: LG0567-F671-PDC multi-cell spheroid viability
Experiment: Anticancer human tumor LG0567-F671-PDC patient-derived lung adenocarcinoma cell line growth inhibition [IpAb]
Conditions: for IC50: curve of first compound; for viability, T/C: stronger effect = lower value
Description: Combinatorial screen of targeted agents with ipatasertib and abemaciclib in multi-cell type tumor spheroids
A high-throughput screen of multi-cell type tumor spheroids was designed to identify active combinations of targeted small molecules and ipatasertib or abemaciclib. Complex spheroids include a stromal component modeled by human endothelial cells (HUVEC) and fibroblasts modeled by human mesenchymal stem cells (MSCs). The concentration ranges selected for each drug and investigational agent were based upon clinically achievable concentrations if the clinical Cmax of the agent was known.
Compounds. The drugs and investigational agents: ipatasertib (NSC767898), abemaciclib(NSC768073), selumetinib (NSC741078), trametinib (758246), adavosertib (NSC754352), everolimus (NSC733504), sapanisertib (NSC764658), vemurafenib (NSC761431), venetoclax (NSC766270), copanlisib (NSC809693), apelisib (NSC765974), palbociblib (NSC758247), vemurafenib (NSC761431), dabrafenib (NSC764134), ravoxertinib (NSC781343), BMS-387032 (NSC767048), sotorasib (NSC818433), talazoparib (NSC767125) and afursertib (NSC778305), were obtained from the National Cancer Institute (NCI) Developmental Therapeutics Program Chemical Repository. The FDA-approved anticancer drug set is available from the NCI Developmental Therapeutics Program. […] The stock solutions were prepared in dimethyl sulfoxide (DMSO, Sigma-Aldrich, St. Louis, MO, cat. D2650) at 800-fold the tested concentration and stored at -70 degrees C prior to their use. All drugs and investigational agents were tested over a range starting from a high concentration at or near the clinical Cmax and decreasing in half-log increments. If the clinical Cmax for an agent had not been determined, the highest concentration tested was 10 microM.
NCI60 Cell Culture. NCI60 cell lines were obtained from the NCI Developmental Therapeutics Program Tumor Repository. For each lot of cells, the Repository performed Applied Biosystems AmpFLSTR Identifiler testing with PCR amplification to confirm consistency with the published Identifier STR profile for each cell line. Cells were kept in continuous culture for no more than 20 passages. The optimal seeding densities for each of the cell lines at each time point assessed were determined prior to performing the concentration response studies. Briefly, the NCI60 human tumor lines were grown as monolayers in RPMI 1640 medium supplemented with 10% FBS and 2 mmol/L L-glutamine.
An additional 9 lines were from the NCI60 cell line panel including MDA-MB-231 breast carcinoma, MDA-MB-468 breast carcinoma, MCF7 breast carcinoma, Hs578T breast carcinoma, MALME-3M melanoma, SK-MEL-2 melanoma, SK-OV-3 ovarian carcinoma, DU-145 prostate carcinoma, PC-3 prostate carcinoma, all cell lines along with major genetic alterations are listed on Table 2. Pooled donor human umbilical vein endothelial cells (HUVEC, Lonza, cat. CC-2519) and human mesenchymal stem cells (hMSC, Lonza, cat. PT-2501) were purchased from Lonza (Walkersville, MD).
PDMR cell lines were grown in complete medium (DC medium): Dulbecco's modified Eagle's medium (DMEM)/F12 supplemented with 5% fetal bovine serum (FBS), 2 mM L-glutamine, 100 U/mL penicillin and 100 µg/ml streptomycin, 0.4 µg/ml hydrocortisone, 10 ng/ml epidermal growth factor (EGF) recombinant human protein, 24 µg/mL adenine, and 0.1 mg/mL primocin. During culture from frozen stock vials, PDMR cells were cultured in the same medium containing 10 µM Y-27632 (see Table 3). The PDCs were cultured in complete DMEM/F12 media without 10 microM Y-27632 dihydrochloride for at least two passages prior to the screen. The pooled donor HUVEC and hMSC were cultured in endothelial cell growth medium 2 (PromoCell, Heidelberg, Germany, cat. C-22011) and mesenchymal stem cell growth medium 2 (PromoCell, cat. C-28009), respectively. For all experiments, HUVEC and hMSC were used at passages </=5.
[…]

[1] = second compound 0.1 µM, first compound 0.0316 µM
[2] = second compound 0.1 µM, first compound 0.1 µM
[3] = second compound 0.1 µM, first compound 0.316 µM
[4] = second compound 0.1 µM, first compound 1 µM
[5] = second compound 0.1 µM, first compound 3.16 µM
[6] = second compound 0.1 µM, first compound 10 µM
[7] = second compound 0.316 µM, first compound 0.0316 µM
[8] = second compound 0.316 µM, first compound 0.1 µM
[9] = second compound 0.316 µM, first compound 0.316 µM
[10] = second compound 0.316 µM, first compound 1 µM
[11] = second compound 0.316 µM, first compound 3.16 µM
[12] = second compound 0.316 µM, first compound 10 µM
[13] = second compound 1 µM, first compound 0.0316 µM
[14] = second compound 1 µM, first compound 0.1 µM
[15] = second compound 1 µM, first compound 0.316 µM
[16] = second compound 1 µM, first compound 1 µM
[17] = second compound 1 µM, first compound 3.16 µM
[18] = second compound 1 µM, first compound 10 µM
[19] = second compound 3.16 µM, first compound 0.0316 µM
[20] = second compound 3.16 µM, first compound 0.1 µM
[21] = second compound 3.16 µM, first compound 0.316 µM
[22] = second compound 3.16 µM, first compound 1 µM
[23] = second compound 3.16 µM, first compound 3.16 µM
[24] = second compound 3.16 µM, first compound 10 µM
[25] = second compound 10 µM, first compound 0.0316 µM
[26] = second compound 10 µM, first compound 0.1 µM
[27] = second compound 10 µM, first compound 0.316 µM
[28] = second compound 10 µM, first compound 1 µM
[29] = second compound 10 µM, first compound 3.16 µM
[30] = second compound 10 µM, first compound 10 µM
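Note: viability read after 7 days of drug exposure.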
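Throughout, for viability, T/C: 100% = DMSO vehicle control luminescence.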

Row | SMILES | IC50 (second compound 0.1 µM) [µM] | IC50 (second compound 0.316 µM) [µM] | IC50 (second compound 1 µM) [µM] | viability, T/C [1] [%] | viability, T/C [2] [%] | viability, T/C [3] [%] | viability, T/C [4] [%] | viability, T/C [5] [%] | viability, T/C [6] [%] | viability, T/C [7] [%] | viability, T/C [8] [%] | viability, T/C [9] [%] | viability, T/C [10] [%] | viability, T/C [11] [%] | viability, T/C [12] [%] | viability, T/C [13] [%] | viability, T/C [14] [%] | viability, T/C [15] [%] | viability, T/C [16] [%] | viability, T/C [17] [%] | other results
1 | Cc1nc(NC(=O)N2CCCC2C(N)=O)sc1-c1ccnc(C(C)(C)C(F)(F)F)c1 (stereo not given) + CC(C)NCC(C(=O)N1CCN(c2ncnc3c2C(C)CC3O)CC1)c1ccc(Cl)cc1 | 5.19 | 0.924 | 0.257 | 85.3 | 86.2 | 71 | 42.8 | 72 | 39.7 | 63.8 | 72 | 44.2 | 56.8 | 40.2 | 35.9 | 66.1 | 68.2 | 46.2 | 34.2 | 35.6 | IC50 (second compound 3.16 µM): 0.341 µM; IC50 (second compound 10 µM): < 0.0316 µM; viability, T/C [18]: 29.8%; viability, T/C [19]: 56%; viability, T/C [20]: 50.9%; viability, T/C [21]: 48.7%; viability, T/C [22]: 44.5%; viability, T/C [23]: 41.1%; viability, T/C [24]: 21.4%; viability, T/C [25]: 50.5%; viability, T/C [26]: 53.1%; viability, T/C [27]: 38.6%; viability, T/C [28]: 46.2%; viability, T/C [29]: 37.8%; viability, T/C [30]: 25.8%
2 | CC1(C)CCC(CN2CCN(c3ccc(C(=O)NS(=O)(=O)c4ccc(NCC5CCOCC5)c([N+](=O)[O-])c4)c(Oc4cnc5[nH]ccc5c4)c3)CC2)=C(c2ccc(Cl)cc2)C1 + CC(C)NCC(C(=O)N1CCN(c2ncnc3c2C(C)CC3O)CC1)c1ccc(Cl)cc1 | 6.9 | 5.51 | 5.38 | 78.6 | 86.3 | 93.8 | 88.6 | 93.9 | 31.9 | 50 | 91.5 | 81.6 | 55.8 | 83.8 | 25.9 | 63.5 | 82.9 | 88.4 | 76.2 | 70.4 | IC50 (second compound 3.16 µM): 5.36 µM; IC50 (second compound 10 µM): 4.76 µM; viability, T/C [18]: 26.1%; viability, T/C [19]: 71.5%; viability, T/C [20]: 80.1%; viability, T/C [21]: 79.9%; viability, T/C [22]: 62.2%; viability, T/C [23]: 72.7%; viability, T/C [24]: 23.6%; viability, T/C [25]: 77.3%; viability, T/C [26]: 79.5%; viability, T/C [27]: 76.2%; viability, T/C [28]: 79.9%; viability, T/C [29]: 72.8%; viability, T/C [30]: 8.73%
3 | C=CC(=O)N1CCN(c2nc(=O)n(-c3c(C)ccnc3C(C)C)c3nc(-c4c(O)cccc4F)c(F)cc23)C(C)C1 (stereo not given) + CCN1CCN(Cc2ccc(Nc3ncc(F)c(-c4cc(F)c5nc(C)n(C(C)C)c5c4)n3)nc2)CC1 | < 0.0316 | < 0.0316 | < 0.0316 | 15.5 | 15.8 | 16.6 | 13.2 | 13.8 | 13.9 | 16.2 | 18.4 | 22.1 | 18.2 | 16.6 | 16 | 18.6 | 23 | 27.1 | 18.9 | 25.8 | IC50 (second compound 0.01 µM): < 0.0316 µM; IC50 (second compound 0.0316 µM): < 0.0316 µM; viability, T/C (second compound 0.01 µM, first compound 0.0316 µM): 21.1%; viability, T/C (second compound 0.01 µM, first compound 0.1 µM): 19.5%; viability, T/C (second compound 0.01 µM, first compound 0.316 µM): 14.9%; viability, T/C (second compound 0.01 µM, first compound 1 µM): 19.8%; viability, T/C (second compound 0.01 µM, first compound 3.16 µM): 17.1%; viability, T/C (second compound 0.01 µM, first compound 10 µM): 17.5%; viability, T/C (second compound 0.0316 µM, first compound 0.0316 µM): 18.4%; viability, T/C (second compound 0.0316 µM, first compound 0.1 µM): 14.3%; viability, T/C (second compound 0.0316 µM, first compound 0.316 µM): 15.7%; viability, T/C (second compound 0.0316 µM, first compound 1 µM): 15.9%; viability, T/C (second compound 0.0316 µM, first compound 3.16 µM): 13.1%; viability, T/C (second compound 0.0316 µM, first compound 10 µM): 14%; viability, T/C [18]: 21.1%
